Assay results reported in US10766869B2, “Triazoles for the treatment of demyelinating dieases” (Vertex Pharmaceuticals Incorporated, priority 2015, dated 2020).

System: primary rat mixed cortical cells
Assay: In vitro myelination assay (MBP positive myelin strands, fold myelin pixels above background)
Assay type: cell-based
Conditions: Rattus norvegicus, relative to baseline of no added compound; for fold induction at 1 µM: 1.0 μM compound, read-out: Fold myelin pixels above background, 1.0 μM; for fold induction at 10 µM: 10.0 μM compound, read-out: Fold myelin pixels above background, 10.0 μM
Summary of the method: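 Read-out is total MBP-positive myelin strand pixels per well, detected by custom ridge-tracing software and reported as fold over untreated baseline. Primary P1 rat mixed cortical cells received compound (1.0 or 10.0 μM) for 14 days, with medium half-replaced on days 6 and 10. Standard deviation was taken across all replicates.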

SMILES	fold induction at 1 µM	fold induction at 10 µM
Clc1cncc(-n2cnc(Nc3cc(C4CC4)cc(N4CCN(C5COC5)CC4)c3)n2)c1 [Compound 134, 1-(5-chloro-3-pyridyl)-N-[3-cyclopropyl-5-[4-(oxetan-3-yl)piperazin-1-yl]phenyl]-1,2,4-triazol-3-amine]	100 to 1000	10 to 100
Clc1cc(Nc2ncn(-c3ccccc3)n2)cc(N2CCOCC2)n1 [Compound 135, 2-chloro-6-morpholino-N-(1-phenyl-1,2,4-triazol-3-yl)pyridin-4-amine]	1000 to 10000	≤ 1
Cc1cc(Nc2ncn(-c3cnccn3)n2)cc(N2CCN(C3(C)COC3)CC2)c1 [Compound 136, N-[3-methyl-5-[4-(3-methyloxetan-3-yl)piperazin-1-yl]phenyl]-1-pyrazin-2-yl-1,2,4-triazol-3-amine]	1 to 10	10 to 100
Cc1cc(Nc2ncn(-c3cc(F)cc(F)c3)n2)cc(N2CCN(C3CCOC3)CC2)c1 (stereo not drawn) [Compound 137, 1-(3,5-difluorophenyl)-N-[3-methyl-5-(4-tetrahydrofuran-3-ylpiperazin-1-yl)phenyl]-1,2,4-triazol-3-amine]	1000 to 10000	100 to 1000
Cc1cc(Nc2ncn(-c3ccccn3)n2)cc(N2CCN(C)CC2)c1 [Compound 138, N-[3-methyl-5-(4-methylpiperazin-1-yl)phenyl]-1-(2-pyridyl)-1,2,4-triazol-3-amine]	10 to 100	100 to 1000
Cc1cc(Nc2ncn(-c3cc(F)cc(F)c3)n2)cc(N2CC[N+]([O-])(C3COC3)CC2)c1 [Compound 139, 1-(3,5-difluorophenyl)-N-[3-methyl-5-[4-(oxetan-3-yl)-4-oxido-piperazin-4-ium-1-yl]phenyl]-1,2,4-triazol-3-amine]	100 to 1000	1 to 10
Cc1cc(Nc2ncn(-c3ccc(C#N)c(F)c3)n2)cc(N2CCN(C3COC3)CC2)c1 [Compound 140, 2-fluoro-4-[3-[3-methyl-5-[4-(oxetan-3-yl)piperazin-1-yl]anilino]-1,2,4-triazol-1-yl]benzonitrile]	1 to 10	1 to 10
Cc1cc(Nc2ncn(-c3cccc(Cl)c3)n2)cc(N2CCN(C)CC2)c1 [Compound 141, 1-(3-chlorophenyl)-N-[3-methyl-5-(4-methylpiperazin-1-yl)phenyl]-1,2,4-triazol-3-amine]	100 to 1000	≤ 1
Cc1cc(Nc2ncn(-c3ccccc3)n2)cc(N2CCC(C#N)CC2)c1 [Compound 142, 1-[3-methyl-5-[(1-phenyl-1,2,4-triazol-3-yl)amino]phenyl]piperidine-4-carbonitrile]	1000 to 10000	100 to 1000
COC(=O)N1CCCC(c2cc(C)cc(Nc3ncn(-c4ccccc4)n3)c2)C1 (stereo not drawn) [Compound 143, methyl 3-[3-methyl-5-[(1-phenyl-1,2,4-triazol-3-yl)amino]phenyl]piperidine-1-carboxylate]	1000 to 10000	1000 to 10000
CC(=O)N1CCN(c2cc(Nc3ncn(-c4ccccc4)n3)cc(C(F)F)c2)CC1 [Compound 144, 1-[4-[3-(difluoromethyl)-5-[(1-phenyl-1,2,4-triazol-3-yl)amino]phenyl]piperazin-1-yl]ethanone]	100 to 1000	≤ 1
COc1cccc(-n2cnc(Nc3cc(Cl)nc(N4CCOCC4)c3)n2)c1 [Compound 145, 2-chloro-N-[1-(3-methoxyphenyl)-1,2,4-triazol-3-yl]-6-morpholino-pyridin-4-amine]	10 to 100	10 to 100
Cc1cc(Nc2ncn(-c3ccccc3)n2)cc(N2CCCC(C#N)C2)c1 (stereo not drawn) [Compound 146, 1-[3-methyl-5-[(1-phenyl-1,2,4-triazol-3-yl)amino]phenyl]piperidine-3-carbonitrile]	1000 to 10000	100 to 1000
Cc1cc(Nc2ncn(-c3cccc(F)c3)n2)cc(C2COC2)c1 [Compound 147, 1-(3-fluorophenyl)-N-[3-methyl-5-(oxetan-3-yl)phenyl]-1,2,4-triazol-3-amine]	1000 to 10000	10 to 100
COCCC1CCN(c2cc(C)cc(Nc3ncn(-c4ccccc4)n3)c2)CC1 [Compound 148, N-[3-[4-(2-methoxyethyl)-1-piperidyl]-5-methyl-phenyl]-1-phenyl-1,2,4-triazol-3-amine]	100 to 1000	100 to 1000
Cc1cc(Nc2ncn(-c3ccccc3)n2)cc(N2CCN(C3CC3)CC2)c1 [Compound 149, N-[3-(4-cyclopropylpiperazin-1-yl)-5-methyl-phenyl]-1-phenyl-1,2,4-triazol-3-amine]	1000 to 10000	10 to 100
Fc1ccc(-n2cnc(Nc3cc(C4CCOCC4)nc(C4CC4)c3)n2)cc1F [Compound 150, 2-cyclopropyl-N-(1-(3,4-difluorophenyl)-1H-1,2,4-triazol-3-yl)-6-(tetrahydro-2H-pyran-4-yl)pyridin-4-amine]	1000 to 10000	≤ 1

SMILES	fold induction at 1 µM	fold induction at 10 µM
Cc1cc(Nc2ncn(-c3cc(F)cc(F)c3)n2)cc(C2CCN(C)CC2)c1 [Compound 151, 1-(3,5-difluorophenyl)-N-[3-methyl-5-(1-methyl-4-piperidyl)phenyl]-1,2,4-triazol-3-amine]	10 to 100	≤ 1
Cc1cc(Nc2ncn(-c3ccccc3)n2)cc(N2CC(CC(C)C)N3CCC[C@@H]3C2)c1 (stereo partly drawn) [Compound 152, N-[3-[(8aR)-4-isobutyl-3,4,6,7,8,8a-hexahydro-1H-pyrrolo[1,2-a]pyrazin-2-yl]-5-methyl-phenyl]-1-phenyl-1,2,4-triazol-3-amine]	≤ 1	≤ 1
Fc1cc(-n2cnc(Nc3cc(C(F)F)cc(N4CCN(C5CC5)CC4)c3)n2)ccn1 [Compound 153, N-[3-(4-cyclopropylpiperazin-1-yl)-5-(difluoromethyl)phenyl]-1-(2-fluoro-4-pyridyl)-1,2,4-triazol-3-amine]	100 to 1000	10 to 100
Cc1cc(Nc2ncn(-c3cccc(F)n3)n2)cc(N2CCN(C3COC3)CC2)c1 [Compound 154, 1-(6-fluoro-2-pyridyl)-N-[3-methyl-5-[4-(oxetan-3-yl)piperazin-1-yl]phenyl]-1,2,4-triazol-3-amine]	100 to 1000	100 to 1000
Cc1cc(Nc2ncn(-c3ccnc(O)c3)n2)cc(N2CCOCC2)c1 [Compound 155, 4-[3-(3-methyl-5-morpholino-anilino)-1,2,4-triazol-1-yl]pyridin-2-ol]	100 to 1000	100 to 1000
Cc1cc(Nc2ncn(-c3ccccc3)n2)cc(N2CCN(C)CC2)n1 [Compound 156, 2-methyl-6-(4-methylpiperazin-1-yl)-N-(1-phenyl-1,2,4-triazol-3-yl)pyridin-4-amine]	1000 to 10000	≤ 1
Cc1cc(Nc2ncn(-c3ccccc3)n2)cc(N2CCN3CCC[C@@H]3C2)c1 [Compound 157, N-[3-[(8aR)-3,4,6,7,8,8a-hexahydro-1H-pyrrolo[1,2-a]pyrazin-2-yl]-5-methyl-phenyl]-1-phenyl-1,2,4-triazol-3-amine]	1000 to 10000	1000 to 10000
Fc1cc(Nc2ncn(-c3cccc(F)c3)n2)cc(N2CCOCC2)c1 [Compound 158, N-(3-fluoro-5-morpholino-phenyl)-1-(3-fluorophenyl)-1,2,4-triazol-3-amine]	10 to 100	100 to 1000
Cc1cc(Nc2ncn(-c3ccccc3)n2)cc(N2CCNCC2)c1 [Compound 159, N-(3-methyl-5-piperazin-1-yl-phenyl)-1-phenyl-1,2,4-triazol-3-amine]	1000 to 10000	≤ 1
Cc1cc(Nc2ncn(-c3ccccc3)n2)cc(C2=CCN(C3COC3)C2)c1 [Compound 160, N-[3-methyl-5-[1-(oxetan-3-yl)-2,5-dihydropyrrol-3-yl]phenyl]-1-phenyl-1,2,4-triazol-3-amine]	1000 to 10000	≤ 1
Cc1cc(Nc2ncn(-c3cc(F)cc(F)c3)n2)cc(N2CCC(N3CCCC3=O)CC2)c1 [Compound 161, 1-[1-[3-[[1-(3,5-difluorophenyl)-1,2,4-triazol-3-yl]amino]-5-methyl-phenyl]-4-piperidyl]pyrrolidin-2-one]	10 to 100	10 to 100
COCC1CCN(c2cc(C)cc(Nc3ncn(-c4cc(F)cc(F)c4)n3)c2)CC1 [Compound 162, 1-(3,5-difluorophenyl)-N-[3-[4-(methoxymethyl)-1-piperidyl]-5-methyl-phenyl]-1,2,4-triazol-3-amine]	≤ 1	≤ 1
O=c1cc(-n2cnc(Nc3cc(C(F)F)cc(N4CCN(C5COC5)CC4)c3)n2)cc[nH]1 [Compound 163, 4-[3-[3-(difluoromethyl)-5-[4-(oxetan-3-yl)piperazin-1-yl]anilino]-1,2,4-triazol-1-yl]-1H-pyridin-2-one]	100 to 1000	≤ 1
COC1CCN(c2cc(C)cc(Nc3ncn(-c4cc(F)cc(F)c4)n3)c2)C1 (stereo not drawn) [Compound 164, 1-(3,5-difluorophenyl)-N-[3-(3-methoxypyrrolidin-1-yl)-5-methyl-phenyl]-1,2,4-triazol-3-amine]	1 to 10	1 to 10
c1ccc(-n2cnc(Nc3cc(C4CCOC4)cc(N4CCOCC4)c3)n2)cc1 (stereo not drawn) [Compound 165, N-(3-morpholino-5-tetrahydrofuran-3-yl-phenyl)-1-phenyl-1,2,4-triazol-3-amine]	100 to 1000	10 to 100
Fc1cc(Nc2ncn(-c3cccc(F)c3)n2)cc(N2CCCOCC2)c1 [Compound 166, N-[3-fluoro-5-(1,4-oxazepan-4-yl)phenyl]-1-(3-fluorophenyl)-1,2,4-triazol-3-amine]	100 to 1000	10 to 100
